From BindingDB's records for doi:10.1021/jm9911581 (Cnrs Umr 8532, 2000) come the findings set out here.

Some results are limits rather than exact numbers.

This test deals with HIV-1 integrase catalytic core (disintegration assay). The test can be described thus: Compound was tested in vitro to inhibit human immuno virus-1 (HIV-1) using enzymatic disintegration assay.
In general, IC50 refers to the midpoint of a concentration-inhibition curve. Read a low IC50 as higher potency. For `O=C(O)c1cc(/C=C/c2ccc3ccc(C(=O)O)c(O)c3n2)ccc1O` [2-(3-carboxy-4-hydroxystyryl)-8-hydroxyquinoline-7-carboxylic acid], the midpoint of inhibition, the IC50, lay at 2.7 µM.

Compound `Oc1cccc2ccc(/C=C/c3ccccc3)nc12` [2-Styryl-quinolin-8-ol] showed an IC50 of more than 100 µM.

The compound `O=C(O)c1ccc2ccc(/C=C/c3ccc(O)cc3)nc2c1O` [8-hydroxy-2-(4-hydroxystyryl)quinoline-7-carboxylic acid] yielded an IC50 of 4.2 µM.

In the case of `O=C(O)c1ccc2ccc(/C=C/c3ccccc3)nc2c1O` [8-hydroxy-2-styrylquinoline-7-carboxylic acid], half-maximal inhibition (IC50) was put at 3.4 µM.
